Laboratory results from PubChem BioAssay AID623938 (Vanderbilt Specialized Chemistry Center, 2012).
pEC50: −log10 of the molar value. The source made the active and inactive calls. The rule behind the calls is not given here.

What follows are molecules tested against Muscarinic acetylcholine receptor M4 (Homo sapiens) (UniProt P08173) (assay: human M4 receptor positive allosteric modulators, SAR follow-up, cell-based, calcium mobilization (AID 623938)). Settings: hM4 cells, PAM with EC20 ACh.
Muscarinic acetylcholine receptor M4 (Homo sapiens), sequence (P08173 whole entry, looked up): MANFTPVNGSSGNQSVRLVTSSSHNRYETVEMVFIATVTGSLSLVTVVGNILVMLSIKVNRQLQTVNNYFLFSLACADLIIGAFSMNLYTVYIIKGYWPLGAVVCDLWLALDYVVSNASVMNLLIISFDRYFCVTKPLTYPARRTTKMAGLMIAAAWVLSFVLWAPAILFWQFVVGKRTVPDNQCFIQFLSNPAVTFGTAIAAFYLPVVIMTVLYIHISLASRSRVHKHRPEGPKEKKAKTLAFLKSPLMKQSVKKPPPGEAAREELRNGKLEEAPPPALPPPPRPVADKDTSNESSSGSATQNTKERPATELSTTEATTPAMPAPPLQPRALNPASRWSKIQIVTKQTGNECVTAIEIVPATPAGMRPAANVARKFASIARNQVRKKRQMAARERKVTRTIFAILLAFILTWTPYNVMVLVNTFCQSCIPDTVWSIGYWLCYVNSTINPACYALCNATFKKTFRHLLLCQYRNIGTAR

Structure (SMILES) | pEC50 | outcome
Cc1nc2sc(C(=O)NC3CC3)c(N)c2c(C)c1Cl | 7.68 | –
COc1ccc(CNC(=O)c2sc3nc(C)c(Cl)c(C)c3c2N)cc1 | 7.05 | –
Cc1nc2sc(C(=O)NCc3ccc(F)c(F)c3)c(N)c2c(C)c1Cl | – | active; potentiator
Cc1nc2sc(C(=O)NCc3ccccc3)c(N)c2c(C)c1Cl | 6.88 | –
Cc1nc2sc(C(=O)NCc3ccc(Cl)cc3)c(N)c2c(C)c1Cl | – | active; potentiator
Cc1nc2sc(C(=O)NCCc3cccnc3)c(N)c2c(C)c1Cl | – | inactive
Cc1ccc(CNC(=O)c2sc3nc(C)c(Cl)c(C)c3c2N)cc1 | 6.88 | –
Cc1nc2sc(C(=O)NCCc3ccccn3)c(N)c2c(C)c1Cl | 6.16 | –
Cc1nc2sc(C(=O)NCc3ccccn3)c(N)c2c(C)c1Cl | 6.53 | –
Cc1nc2sc(C(=O)NCc3ncccn3)c(N)c2c(C)c1Cl | 5.97 | –
Cc1nc2sc(C(=O)NC3CCCCC3)c(N)c2c(C)c1Cl | 6.73 | –
Cc1nc2sc(C(=O)NC3COC3)c(N)c2c(C)c1Cl | 6.04 | –
Cc1nc2sc(C(=O)NCc3ccc4c(c3)OCO4)c(N)c2c(C)c1Cl | 6.77 | –
Cc1nc2sc(C(=O)NCc3cccc(F)c3F)c(N)c2c(C)c1Cl | 6.92 | –
COCCCNC(=O)c1sc2nc(C)c(Cl)c(C)c2c1N | 6.37 | –
Cc1nc2sc(C(=O)NC(C)c3ccncc3)c(N)c2c(C)c1Cl (centres undefined) | 6.22 | –
Cc1nc2sc(C(=O)Nc3ccccc3N(C)C)c(N)c2c(C)c1Cl | – | inactive
Cc1cc(CNC(=O)c2sc3nc(C)c(Cl)c(C)c3c2N)ccn1 | 7.24 | –
Cc1nc2sc(C(=O)NC3CCOCC3)c(N)c2c(C)c1Cl | 6.66 | –

Structure (SMILES) | pEC50 | outcome
COc1ccc(NC(=O)c2sc3nc(C)c(Cl)c(C)c3c2N)cc1 | – | active; potentiator
Cc1nc2sc(C(=O)NCCC3CCCN3C)c(N)c2c(C)c1Cl (centres undefined) | 6.22 | –
Cc1nc2sc(C(=O)NCc3ccncc3)c(N)c2c(C)c1Cl | 7.43 | –
Cc1nc2sc(C(=O)NCc3cccnc3)c(N)c2c(C)c1Cl | 6.48 | –
Cc1nc2sc(C(=O)NC(C)C)c(N)c2c(C)c1Cl | 6.74 | –
Cc1nc2sc(C(=O)NC(C)(C)C)c(N)c2c(C)c1Cl | 6.43 | –
Cc1nc2sc(C(=O)NCc3ccccc3Cl)c(N)c2c(C)c1Cl | 6.81 | –
Cc1nc2sc(C(=O)NCc3ccncn3)c(N)c2c(C)c1Cl | 6.76 | –
Cc1nc2sc(C(=O)NCc3nccs3)c(N)c2c(C)c1Cl | 6.76 | –
Cc1nc2sc(C(=O)NCc3ccc(C(F)(F)F)cc3)c(N)c2c(C)c1Cl | 5.94 | –
COc1cccc2sc(NC(=O)c3ccncc3)nc12 | 5.64 | –
Cc1nc2sc(C(=O)NC(C)c3ccccn3)c(N)c2c(C)c1Cl (centres undefined) | 5.85 | –
Cc1nc2sc(C(=O)NCc3cnccn3)c(N)c2c(C)c1Cl | 6.60 | –
Cc1nc2sc(C(=O)NC(C)c3cccnc3)c(N)c2c(C)c1Cl (centres undefined) | 6.22 | –
Cc1nc2sc(C(=O)NCC3CCCCC3)c(N)c2c(C)c1Cl | 5.96 | –
CCOc1ccc(NC(=O)c2sc3nc(C)c(Cl)c(C)c3c2N)cc1 | – | inactive
Cc1nc2sc(C(=O)NC3CCOC3)c(N)c2c(C)c1Cl (centres undefined) | 7.54 | –
Cc1nc2sc(C(=O)NCCc3ccncc3)c(N)c2c(C)c1Cl | 6.68 | –
Cc1nc2sc(C(=O)NCc3ccnnc3)c(N)c2c(C)c1Cl | 6.65 | –

Other lines, results leading:

pEC50 | outcome | Structure (SMILES)
5.60 | – | COc1ccc(C)c2sc(NC(=O)c3cccnc3)nc12
< 5.00 | – | COc1ccc(C)c2sc(NC(=O)C3CCC3)nc12
5.85 | – | COc1ccc(C)c2sc(NC(=O)c3ccco3)nc12
6.13 | – | COc1ccc(C)c2sc(NC(=O)c3cnccn3)nc12
< 5.00 | – | COc1ccc(C)c2sc(NC(=O)N3CCCC3)nc12
5.45 | – | COc1ccc(C)c2sc(NC(=O)NC3CCCC3)nc12
< 5.00 | – | COc1ccc(C)c2sc(NC(=O)C(C)C)nc12
5.72 | – | COc1ccc(C)c2sc(NC(=O)C3=COCCO3)nc12
< 5.00 | – | COc1ccc(C)c2sc(C(=O)NC3CC3)nc12
5.85 | – | COc1ccc(C)c2sc(NC(=O)c3ccncc3)nc12
< 5.00 | – | COc1ccc(C)c2sc(NC(=O)NC3CC3)nc12
< 5.00 | – | COCC(=O)Nc1nc2c(OC)ccc(C)c2s1
< 5.00 | – | COc1ccc(C)c2sc(NC(=O)C3CC3)nc12
< 5.00 | – | COc1ccc(C)c2sc(NC(=O)C3CCCOC3)nc12 (centres undefined)
< 5.00 | – | COc1ccc(C)c2sc(NC(=O)C3CCCCC3)nc12
< 5.00 | – | COc1ccc(C)c2sc(NC(=O)C3CC3C)nc12 (centres undefined)
< 5.00 | – | CCCC(=O)Nc1nc2c(OC)ccc(C)c2s1
< 5.00 | – | COc1ccc(C)c2sc(NC(=O)C3CCCC3)nc12

Same assay, conditions: hM4 cells, PAM with EC20 ACh, active compounds read high

Structure (SMILES) | % ACh max
COc1ccc(C)c2sc(NS(=O)(=O)c3ccc(C(F)(F)F)cc3)nc12 | inactive
COc1ccc2nc(NC(=O)c3ccncc3)sc2n1 | inactive
O=C(Nc1nc2cccnc2s1)c1cccnn1 | inactive
O=C(Nc1nc2cccnc2s1)c1cnccn1 | inactive
COc1ccc(C)c2sc(NS(=O)(=O)c3cc(C)ccn3)nc12 | inactive
COc1ccc(C)c2sc(NC(=O)Nc3ccncc3)nc12 | inactive
COc1ccc(C)c2sc(C(=O)Nc3ccncc3)nc12 | inactive
COc1ccc(C)c2sc(NC(=O)c3c(F)cccc3F)nc12 | inactive
COc1ccc(C)c2sc(NS(=O)(=O)c3cnn(C)c3)nc12 | inactive
COc1ccc(C)c2sc(NC(=O)c3cc(F)cc(F)c3)nc12 | inactive
COc1ccc(C)c2sc(NC(=O)NCc3ccncc3)nc12 | inactive
COc1ccc(C)c2sc(C(=O)NCc3ccncc3)nc12 | inactive
COc1ccc(C)c2sc(NC(=O)c3ccc(F)c(F)c3)nc12 | inactive
COc1ccc(C)c2sc(NS(=O)(=O)c3cccc(C)c3)nc12 | inactive
COc1ccc(C)c2sc(C(=O)Nc3ccc(C)nc3)nc12 | inactive
COc1ccc(C)c2sc(NS(=O)(=O)c3ccc(F)cc3F)nc12 | inactive
COc1ccc(C)c2sc(NS(=O)(=O)c3cccc(Cl)c3)nc12 | inactive
Clc1cccc(Nc2n[nH]c3ccccc23)c1 | inactive
O=C(Nc1nc2cccnc2s1)C1CCC1 | inactive
COc1ccc(C)c2sc(NC(=O)c3ccc(F)cc3F)nc12 | inactive
COc1ccc(C)c2sc(NC(=O)CCc3ccccc3)nc12 | inactive
COc1ccc(C)c2sc(NS(=O)(=O)c3ccc4occc4c3)nc12 | inactive
O=C(Nc1nc2cccnc2s1)C1CCCC1 | inactive

The remaining lines, values ahead:

% ACh max | Structure (SMILES)
inactive | COc1ccc(C)c2sc(NC(=O)NC3CCC3)nc12
inactive | COc1ccc(C)c2sc(NCC3CC3)nc12
inactive | CCCCC1CC1C(=O)Nc1nc2c(OC)ccc(C)c2s1 (centres undefined)
inactive | COc1ccc(C)c2sc(C(=O)NC3CCCC3)nc12
inactive | COc1ccc(C)c2sc(NC(C)=O)nc12
inactive | O=C(Nc1nc2ccccc2s1)C1CCCCO1 (centres undefined)
inactive | COc1ccc(C)c2sc(C(=O)NC3CCCCC3)nc12
36.4% | COc1ccc(C)c2sc(C(=O)NC3COC3)nc12
inactive | COc1ccc(C)c2sc(NC(=O)CC(C)(C)C)nc12
inactive | COc1ccc(C)c2sc(NC(=O)C3=C(C)OCCO3)nc12
inactive | COc1ccc(C)c2sc(NC(=O)c3ccccn3)nc12
inactive | COc1ccc(C)c2sc(NC(=O)N3CCCCC3)nc12
inactive | COc1ccc(C)c2sc(NC(=O)c3ccc(C)cc3)nc12
64.1% | COc1ccc(C)c2sc(NC(=O)C3CCCCO3)nc12 (centres undefined)
inactive | COc1ccc(C)c2sc(NC(=O)c3ccc(F)cc3)nc12
